Measured values reported in PMC6151588, “Four Prenylflavone Derivatives with Antiplasmodial Activities from the Stem of Tephrosia purpurea subsp. leptostachya” (Molecules : A Journal of Synthetic Chemistry and Natural …, 2017).
“Also recorded” adds a separate entry of the source. Like-named read-outs stand apart in the source and are kept apart here.

Legend:
[1] = MTT cytotoxicity assay, BEAS; type: cell-based; details: human, non-tumoral cell
Method: (§1) A549, HepG2, and non-tumoral cells were all purchased from ATCC. Cells were cultured in RPMI 1640 medium supplemented with 10% fetal bovine serum and antibiotics penicillin (50 U/mL) and streptomycin (50 μg/mL; Invitrogen, Paisley, Scotland, UK). All cell cultures were incubated at 37 °C in a 5% humidified CO2 incubator. All tested compounds were dissolved in DMSO at a final concentration of 50 mmol/L and stored at −20 °C before use. Cytotoxicity was assessed by using the 3-(4,5-dimethylthiazol-2-yl)-2,5-diphenyltetrazolium bromide (MTT) (5.0 mg/mL) assay as previously described. Briefly, 4 × 10^3 cells per well were seeded in 96-well plates before drug treatments. After overnight culture, the cells were then exposed to different concentrations of selected compounds (0.039–100 μmol/L) for 72 h. Cells without drug treatment were used as the control. Subsequently, MTT (10 μL) solution was added to each well and incubated at 37 °C for 4 h followed by the addition of 100 μL solubilization buffer (10% SDS in 0.01 mol/L HCl) and overnight incubation. A570 nm was then determined in each well on the next day. The percentage of cell viability was calculated using the following formula: Cell viability (%) = Atreated/Acontrol × 100. Data were obtained from three independent experiments and the standard error was calculated.

[2] = MTT cytotoxicity assay, HepG2; type: cell-based; details: human, HepG2 cells (liver cancer cell line)
Method: as §1

[3] = MTT cytotoxicity assay, A549; type: cell-based; details: human, A549 cells (adenocarcinomic alveolar basal epithelial cells), cancer cell
Method: as §1

[4] = tested on: chloroquine-sensitive D6 strain of Plasmodium falciparum; experiment: In vitro antiplasmodial activity, non-radioactive (fluorescence-based) assay; type: cell-based; details: for Antiplasmodial activity in words: D6 strain of Plasmodium falciparum; for IC50: Plasmodium falciparum
Method: The pure compounds were assayed using a non-radioactive assay technique as described by […] al., 2004 [32] with modifications given in the literature.

[5] = MTT cytotoxicity assay, LO2; type: cell-based; details: human, LO2 cells (immortal hepatic cell line), non-tumoral cell
Method: as §1

[6] = tested on: two non-tumoral and two cancerous cell-lines (LO2, BEAS, A549, HepG2); experiment: MTT cytotoxicity, summary over the four cell-lines; type: cell-based
Method: as §1

[7] = MTT cytotoxicity, summary over the four cell-lines; type: cell-based; details: human, two non-tumoral and two cancerous cell-lines; read-out: Cytotoxicity IC50 against four cell-lines
Method: as §1

[8] = D6 strain, in vitro, read-out: Antiplasmodial activity against P. falciparum D6, IC50

Row | IC50 [4, 8] [µM] | melting point [°C] | IC50 ([4]; D6, read-out: Antiplasmodial activity against P. falciparum D6, IC50) [µM] | SMILES | IC50 at 72 h [1] [µM] | IC50 at 72 h [2] [µM] | IC50 at 72 h [3] [µM] | Antiplasmodial activity in words [4] | IC50 at 72 h [5] [µM] | Selectivity index ([6]; cytotoxicity versus antiplasmodial activity (D6)) | IC50 ([6]; two non-tumoral and two cancerous cell-lines, read-out: Cytotoxicity IC50 against four cell-lines) [µM] | IC50 at 72 h [7] [µM]
1 | 14.8 ± 3.2 | 210 to 214 | – | COc1cc(OC(C)=O)c(C2COC(C)(C)C2=O)c2oc(-c3ccccc3)cc(=O)c12 (stereo not drawn) [Compound 4, 8-(5,5-dimethyl-4-oxotetrahydrofuran-3-yl)-5-methoxy-4-oxo-2-phenyl-4H-chromen-7-yl acetate] | > 100 | > 100 | > 100 | low antiplasmodial activities | > 100 | – | – | –
2 | – | – | 0.037 ± 0.003 | CCN(CC)CCCC(C)Nc1ccnc2cc(Cl)ccc12 (stereo not drawn) [Chloroquine, reference compound] | – | – | – | – | – | – | – | –
3 | – | – | – | COc1cc(O)c2c(=O)cc(-c3ccccc3)oc2c1/C=C/C(C)=O [Compound 2, (E)-5-hydroxy-7-methoxy-8-(3-oxobut-1-en-1-yl)-2-phenyl-4H-chromen-4-one] | > 100 | > 100 | > 100 | – | > 100 | – | – | –
4 | 27.1 ± 3.2 | – | – | COc1cc(OC)c2c(=O)cc(-c3ccccc3)oc2c1C1=COC(C)(C)C1=O [Compound 9, tachrosin] | > 100 | > 100 | > 100 | low antiplasmodial activities | > 100 | – | – | –
5 | 1.7 ± 0.1 | – | – | COc1cc(O)c2c(=O)cc(-c3ccccc3)oc2c1/C=C/C(C)(C)O [Compound 1, (E)-5-hydroxy-8-(3-hydroxy-3-methylbut-1-en-1-yl)-7-methoxy-2-phenyl-4H-chromen-4-one] | 24.5 ± 2.7 | > 100 | 76.1 ± 2.9 | good activity; also recorded: the most active | 21.7 ± 4.8 | > 12 | > 21 | 21 to 100
